Literature values as cited in patent US8911777B2, “Pharmaceutical composition of tacrolimus” (Sigmoid Pharma Limited, priority 2007, dated 2014).

Legend:
[1] = after oral administration of conventional IR tablets
[2] = whole blood; Masuda et al. 2006

In the case of `C=CC[C@@H]1/C=C(\C)C[C@H](C)C[C@H](OC)[C@H]2O[C@@](O)(C(=O)C(=O)N3CCCC[C@H]3C(=O)O[C@H](/C(C)=C/[C@@H]3CC[C@@H](O)[C@H](OC)C3)[C@H](C)[C@@H](O)CC1=O)[C@H](C)C[C@@H]2OC` [Tacrolimus], the “persistence of drug effects” value [1] is given as 8 to 12 h and the “blood concentration at which adverse effects occurred” value [2] is given as “higher than 15 ng/ml”.
